# In PubChem BioAssay (NCI):
#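 A five-concentration, 48-hour dose response in 96-well plates underlies each endpoint, interpolated linearly between surrounding concentrations. At the TGI there is no net growth.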
# Legend:
# Experiment in all cases: NCI-60 cell line screen, 48 h
# SNB-19 CNS = system: SNB-19 CNS
# UACC-257 melanoma = system: UACC-257 melanoma
# DU-145 prostate = system: DU-145 prostate
# SR leukemia = system: SR leukemia
# IGROV1 ovarian = system: IGROV1 ovarian
# RPMI-8226 leukemia = system: RPMI-8226 leukemia
# T-47D breast = system: T-47D breast
# RXF 393 renal = system: RXF 393 renal
# EKVX NSCLC = system: EKVX NSCLC
# SK-MEL-5 melanoma = system: SK-MEL-5 melanoma
# PC-3 prostate = system: PC-3 prostate
# OVCAR-4 ovarian = system: OVCAR-4 ovarian
# MDA-MB-231 breast = system: MDA-MB-231 breast
# OVCAR-3 ovarian = system: OVCAR-3 ovarian
# HOP-62 NSCLC = system: HOP-62 NSCLC
# NCI-H522 lung = system: NCI-H522 lung
# BT-549 breast = system: BT-549 breast
# HCT-15 colon = system: HCT-15 colon
# MCF7 breast = system: MCF7 breast
# UO-31 renal = system: UO-31 renal
# NCI-H226 lung = system: NCI-H226 lung
# U251 CNS = system: U251 CNS
# MDA-N = system: MDA-N
# NCI-H460 lung = system: NCI-H460 lung
# SN12C renal = system: SN12C renal
# A498 renal = system: A498 renal
# K-562 leukemia = system: K-562 leukemia
# A549 NSCLC = system: A549 NSCLC
# OVCAR-8 ovarian = system: OVCAR-8 ovarian
# KM12 colon = system: KM12 colon
# SNB-75 CNS = system: SNB-75 CNS
# SW-620 colon = system: SW-620 colon
# LOX IMVI melanoma = system: LOX IMVI melanoma
# HOP-92 NSCLC = system: HOP-92 NSCLC
# SK-MEL-28 melanoma = system: SK-MEL-28 melanoma
# M14 melanoma = system: M14 melanoma
# NCI/ADR-RES ovarian = system: NCI/ADR-RES ovarian
# COLO 205 colon = system: COLO 205 colon
# CCRF-CEM leukemia = system: CCRF-CEM leukemia
# HS 578T breast = system: HS 578T breast
# 786-0 renal = system: 786-0 renal
# SF-295 CNS = system: SF-295 CNS
# MDA-MB-435 = system: MDA-MB-435
# HCC-2998 colon = system: HCC-2998 colon
# HCT-116 colon = system: HCT-116 colon
# CAKI-1 renal = system: CAKI-1 renal
# SK-MEL-2 melanoma = system: SK-MEL-2 melanoma
# SK-OV-3 ovarian = system: SK-OV-3 ovarian
# TK-10 renal = system: TK-10 renal
# MALME-3M melanoma = system: MALME-3M melanoma
# NCI-H23 lung = system: NCI-H23 lung
# UACC-62 melanoma = system: UACC-62 melanoma
# HL-60(TB) leukemia = system: HL-60(TB) leukemia
# SF-539 CNS = system: SF-539 CNS
# OVCAR-5 ovarian = system: OVCAR-5 ovarian
# ACHN renal = system: ACHN renal
# HT29 colon = system: HT29 colon
# SF-268 CNS = system: SF-268 CNS
# MOLT-4 leukemia = system: MOLT-4 leukemia
compound,measurement,setting,value
O=C(O)Cc1cc(Cl)ccc1O,TGI,SNB-19 CNS,> 100 µM
same,TGI,UACC-257 melanoma,> 100 µM
same,TGI,DU-145 prostate,> 100 µM
same,TGI,SR leukemia,> 100 µM
same,TGI,IGROV1 ovarian,> 100 µM
same,TGI,RPMI-8226 leukemia,> 100 µM
same,TGI,T-47D breast,> 100 µM
same,TGI,RXF 393 renal,> 100 µM
same,TGI,EKVX NSCLC,> 100 µM
same,TGI,SK-MEL-5 melanoma,> 100 µM
same,TGI,PC-3 prostate,> 100 µM
same,TGI,OVCAR-4 ovarian,> 100 µM
same,TGI,MDA-MB-231 breast,> 100 µM
same,TGI,OVCAR-3 ovarian,> 100 µM
same,TGI,HOP-62 NSCLC,> 100 µM
same,TGI,NCI-H522 lung,> 100 µM
same,TGI,BT-549 breast,> 100 µM
same,TGI,HCT-15 colon,> 100 µM
same,TGI,MCF7 breast,> 100 µM
same,TGI,UO-31 renal,> 100 µM
same,TGI,NCI-H226 lung,> 100 µM
same,TGI,U251 CNS,> 100 µM
same,TGI,MDA-N,> 100 µM
same,TGI,NCI-H460 lung,> 100 µM
same,TGI,SN12C renal,> 100 µM
same,TGI,A498 renal,> 100 µM
same,TGI,K-562 leukemia,> 100 µM
same,TGI,A549 NSCLC,> 100 µM
same,TGI,OVCAR-8 ovarian,> 100 µM
same,TGI,KM12 colon,> 100 µM
same,TGI,SNB-75 CNS,> 100 µM
same,TGI,SW-620 colon,> 100 µM
same,TGI,LOX IMVI melanoma,> 100 µM
same,TGI,HOP-92 NSCLC,> 100 µM
same,TGI,SK-MEL-28 melanoma,> 100 µM
same,TGI,M14 melanoma,> 100 µM
same,TGI,NCI/ADR-RES ovarian,> 100 µM
same,TGI,COLO 205 colon,> 100 µM
same,TGI,CCRF-CEM leukemia,> 100 µM
same,TGI,HS 578T breast,> 100 µM
same,TGI,786-0 renal,> 100 µM
same,TGI,SF-295 CNS,> 100 µM
same,TGI,MDA-MB-435,> 100 µM
same,TGI,HCC-2998 colon,> 100 µM
same,TGI,HCT-116 colon,> 100 µM
same,TGI,CAKI-1 renal,> 100 µM
same,TGI,SK-MEL-2 melanoma,> 100 µM
same,TGI,SK-OV-3 ovarian,> 100 µM
same,TGI,TK-10 renal,> 100 µM
same,TGI,MALME-3M melanoma,> 100 µM
same,TGI,NCI-H23 lung,> 100 µM
same,TGI,UACC-62 melanoma,> 100 µM
same,TGI,HL-60(TB) leukemia,> 100 µM
same,TGI,SF-539 CNS,> 100 µM
same,TGI,OVCAR-5 ovarian,> 100 µM
same,TGI,ACHN renal,> 100 µM
same,TGI,HT29 colon,> 100 µM
same,TGI,SF-268 CNS,> 100 µM
CN1CCN(C(=S)N2CCN(C)CC2)CC1,TGI,SNB-19 CNS,> 100 µM
same,TGI,UACC-257 melanoma,> 100 µM
same,TGI,DU-145 prostate,> 100 µM
same,TGI,SR leukemia,0.983 µM
same,TGI,IGROV1 ovarian,> 100 µM
same,TGI,RPMI-8226 leukemia,> 76.7 µM
same,TGI,T-47D breast,> 100 µM
same,TGI,RXF 393 renal,> 100 µM
same,TGI,EKVX NSCLC,> 100 µM
same,TGI,SK-MEL-5 melanoma,> 100 µM
same,TGI,PC-3 prostate,> 100 µM
same,TGI,OVCAR-4 ovarian,> 100 µM
same,TGI,MDA-MB-231 breast,> 100 µM
same,TGI,OVCAR-3 ovarian,> 100 µM
same,TGI,HOP-62 NSCLC,> 100 µM
same,TGI,NCI-H522 lung,> 45.6 µM
same,TGI,BT-549 breast,> 100 µM
same,TGI,HCT-15 colon,> 100 µM
same,TGI,MOLT-4 leukemia,> 100 µM
same,TGI,MCF7 breast,> 37.3 µM
same,TGI,UO-31 renal,> 100 µM
same,TGI,NCI-H226 lung,> 100 µM
same,TGI,U251 CNS,> 100 µM
same,TGI,MDA-N,> 100 µM
same,TGI,NCI-H460 lung,> 21.8 µM
same,TGI,SN12C renal,> 100 µM
same,TGI,A498 renal,> 100 µM
same,TGI,K-562 leukemia,> 100 µM
same,TGI,A549 NSCLC,> 100 µM
same,TGI,OVCAR-8 ovarian,> 100 µM
same,TGI,KM12 colon,> 100 µM
same,TGI,SNB-75 CNS,> 26.3 µM
same,TGI,SW-620 colon,> 100 µM
same,TGI,LOX IMVI melanoma,> 100 µM
same,TGI,HOP-92 NSCLC,> 100 µM
same,TGI,SK-MEL-28 melanoma,> 100 µM
same,TGI,M14 melanoma,> 100 µM
same,TGI,NCI/ADR-RES ovarian,> 100 µM
same,TGI,COLO 205 colon,9.45 µM
same,TGI,HS 578T breast,> 100 µM
same,TGI,786-0 renal,> 100 µM
same,TGI,SF-295 CNS,> 100 µM
same,TGI,MDA-MB-435,> 100 µM
same,TGI,HCC-2998 colon,> 100 µM
same,TGI,HCT-116 colon,> 100 µM
same,TGI,CAKI-1 renal,> 100 µM
same,TGI,SK-MEL-2 melanoma,> 100 µM
same,TGI,SK-OV-3 ovarian,> 100 µM
same,TGI,TK-10 renal,> 100 µM
same,TGI,MALME-3M melanoma,> 100 µM
same,TGI,NCI-H23 lung,> 100 µM
same,TGI,UACC-62 melanoma,> 100 µM
same,TGI,HL-60(TB) leukemia,> 100 µM
same,TGI,SF-539 CNS,45.3 µM
same,TGI,OVCAR-5 ovarian,> 100 µM
same,TGI,ACHN renal,> 100 µM
same,TGI,HT29 colon,5.86 µM
same,TGI,SF-268 CNS,> 100 µM
